For one test, the target named is T1, Glucocorticoid Receptor (Homo sapiens, UniProt P04150).
T1 construct: These cells express large amount of the GR and are very responsive to GC treatment; endogenous in cells; host or cells: A549 cells transiently transfected with the MMTV-LUC reporter
T1 sequence (P04150 1-777): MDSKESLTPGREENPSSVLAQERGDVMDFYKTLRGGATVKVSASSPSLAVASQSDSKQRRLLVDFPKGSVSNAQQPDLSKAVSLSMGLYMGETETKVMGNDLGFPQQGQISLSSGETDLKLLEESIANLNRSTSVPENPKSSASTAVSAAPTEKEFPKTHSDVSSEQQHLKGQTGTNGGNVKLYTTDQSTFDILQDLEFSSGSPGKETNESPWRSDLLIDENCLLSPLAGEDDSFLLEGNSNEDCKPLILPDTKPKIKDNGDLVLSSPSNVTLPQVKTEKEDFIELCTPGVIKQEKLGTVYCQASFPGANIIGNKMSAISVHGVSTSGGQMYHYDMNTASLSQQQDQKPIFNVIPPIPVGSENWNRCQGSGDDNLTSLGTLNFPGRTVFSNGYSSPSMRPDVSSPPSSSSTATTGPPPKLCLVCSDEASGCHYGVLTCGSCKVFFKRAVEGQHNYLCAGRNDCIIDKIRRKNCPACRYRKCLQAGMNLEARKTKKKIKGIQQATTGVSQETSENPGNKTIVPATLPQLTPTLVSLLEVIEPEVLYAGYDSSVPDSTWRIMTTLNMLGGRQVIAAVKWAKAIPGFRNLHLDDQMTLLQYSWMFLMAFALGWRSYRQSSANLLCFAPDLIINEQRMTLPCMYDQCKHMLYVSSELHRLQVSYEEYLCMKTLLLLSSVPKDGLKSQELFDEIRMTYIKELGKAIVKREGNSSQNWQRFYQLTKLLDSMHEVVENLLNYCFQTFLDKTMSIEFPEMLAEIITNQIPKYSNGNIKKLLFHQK
Briefly: Trans-Activation Modulation of Glucocorticoid Receptor (GRAMMER), MMTV-LUC reporter gene in A549 cells. The test is classed as cell-based. Particulars: for Transactivation A549 Cells GRAMMER Emax / Emax: Emax relative to 300 nM dexamethasone; for EC50: inflection point, read-out: Transactivation A549 Cells GRAMMER IP; for Transactivation A549 Cells GRAMMER Emax / EC50: A549 cells; for Emax: A549, A549 cells, read-out: Transactivation A549 Cells GRAMMER Emax. In a few lines: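 Luciferase from a transiently transfected MMTV-LUC reporter was measured after 24 h compound exposure (≤1% DMSO) in A549 or MDA-MB-453 cells. For antagonism, the decrease of 10 nM dexamethasone-induced signal was calculated. For agonism, Emax was referenced to 300 nM dexamethasone.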
Background: Reporter assays use an easily measured gene product as a stand-in for the process of interest.

Test [1] addresses T2, glucocorticoid receptor (GR) (Homo sapiens, UniProt P04150).
T2 sequence (P04150 1-777): T1 sequence (P04150 1-777)
Briefly: Ligand binding assay (GR BIND), 3H-dexamethasone displacement in MDA-MB-453 cell lysate. As to conditions: GR BIND Ki.

In a further test the target is T3, human GR (Homo sapiens, UniProt P04150).
T3 construct: U937 cells contain an endogenous glucocorticoid receptor (GR); endogenous in cells; host or cells: U937 cells stably transfected with the TNF-alpha promoter/beta-lactamase reporter
T3 sequence (P04150 1-777): T1 sequence (P04150 1-777)
Briefly: Transrepression Assay (GITAR), TNFα-β-lactamase reporter gene in U937 cells. The test is classed as cell-based. As to conditions: for EC50: inflection point, read-out: Transrepression U937 Cells GITAR IP; for Transrepression U937 Cells GITAR Emax / EC50: U937 cells. In a few lines:
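Repression of PMA (5 ng/ml final)/LPS (100 ng/ml final)-induced TNF-α promoter activity, read as β-lactamase cleavage of CCF2-AM, in stably transfected U937 cells expressing native GR. Compound added 30-45 min before stimulation, overnight (~18 hr) 37° C; normalized to 100 nM dexamethasone (100%).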

The mark [2] stands for this setting: GITAR Emax minus GRAMMER Emax, Table 1.
The mark [3] stands for this setting: activity repressed by 100 nM dexamethasone = 100%, Table 1.
[4] abbreviates: U-937, text statement, 100 nM dexamethasone = 100%, read-out: maximal activity in the transrepression assay (GITAR).
Where [5] appears, read: U-937, U937 cells, activity repressed by 100 nM dexamethasone = 100%, Table 1, read-out: Transrepression U937 Cells GITAR Emax.
[6] abbreviates: compounds in the art (WO03/086294).

The results in this text go back to US8338472B2, “Hexahydrocyclopentyl[F]indazole carboxamides and derivatives thereof as selective glucocorticoid receptor modulators” (Merck Sharp & Dohme Corp., priority 2008, dated 2012).

Read-outs that look alike come from different tables or passages of the source.

One may read the Ki as a measure of affinity in units of concentration, obtained from inhibition or displacement. A high value points to lower affinity. For `C[C@]12Cc3cnn(-c4ccc(F)cc4)c3C=C1CC[C@@H]2C(=O)N(CCc1ccccc1F)CC(O)CC(F)(F)F` (stereo partly drawn) [Compound 87, (4αR,5S)-1-(4-fluorophenyl)-N-[2-(2-fluorophenyl)ethyl]-4α-methyl-N-(4,4,4-trifluoro-2-hydroxybutyl)-1,4,4α,5,6,7-hexahydrocyclopenta[f]indazole-5-carboxamide], on Glucocorticoid Receptor (Table 1), the “Transactivation A549 Cells GRAMMER Emax” value is 38.0% and the EC50 is 287 nM. Also, the affinity in test [1] (Table 1), expressed as Ki, was 0.8 nM. The “GITAR Greater than by GRAMMER % SEP” value at human GR (setting [2]) is 23.1%. Besides, the “Transrepression U937 Cells GITAR Emax” value on human GR (setting [3]) was determined as 61.1%. Besides, on human GR (setting [4]), the Emax is greater than 5%. Besides, on human GR (Table 1), the EC50 amounted to 232 nM.

In the case of `C[C@]12Cc3cnn(-c4ccc(F)cc4)c3C=C1CC[C@@H]2C(=O)N(Cc1ccc(Cl)cc1Cl)CC1CC1` [Compound 7, (4αR,5S)-N-(cyclopropylmethyl)-N-(2,4-dichlorobenzyl)-1-(4-fluorophenyl)-4α-methyl-1,4,4α,5,6,7-hexahydrocyclopenta[f]indazole-5-carboxamide], the Emax on Glucocorticoid Receptor (Table 1) is 13.4%; at human GR (setting [5]) it was 18.2%; on human GR (setting [4]), greater than 5%. Moreover, the EC50 on Glucocorticoid Receptor (Table 1) stood at 1400 nM; at human GR (Table 1), 586 nM. In test [1] (Table 1), this compound came in with a Ki of 1.3 nM. Moreover, at human GR (setting [2]), the “GITAR Greater than by GRAMMER % SEP” value is recorded as 4.8%.

For the compound `CCCN(CC1CC1)C(=O)[C@H]1CCC2=Cc3c(cnn3-c3ccc(F)cc3)C[C@@]21C` [Compound 5, (4αR,5S)-N-(cyclopropylmethyl)-1-(4-fluorophenyl)-4α-methyl-N-propyl-1,4,4α,5,6,7-hexahydrocyclopenta[f]indazole-5-carboxamide], the Emax on Glucocorticoid Receptor (Table 1) is 35.4%; at human GR (setting [5]), 59.6%; at human GR (setting [4]) it was greater than 5%. Also, the figures for the EC50 at Glucocorticoid Receptor (Table 1) and on human GR (Table 1) were 358 nM and 674 nM, respectively. The Ki in test [1] (Table 1) was determined as 0.9 nM. Also, the “GITAR Greater than by GRAMMER % SEP” value on human GR (setting [2]) is 24.2%.

Consider `CCN(CC(O)C(F)(F)F)C(=O)[C@H]1CCC2=Cc3c(cnn3-c3ccc(F)cc3)C[C@@]21C` (stereo partly drawn) [Compound 72, (4αR,5S)-N-ethyl-1-(4-fluorophenyl)-4α-methyl-N-(3,3,3-trifluoro-2-hydroxypropyl)-1,4,4α,5,6,7-hexahydrocyclopenta[f]indazole-5-carboxamide], for which, at Glucocorticoid Receptor (Table 1), the “Transactivation A549 Cells GRAMMER Emax” value was determined as 71.2% and the EC50 stood at 37 nM. Besides, in test [1] (Table 1), affinity was put at a Ki of 2.3 nM. In addition, on human GR (setting [2]), the “GITAR Greater than by GRAMMER % SEP” value is on record as 19.6%. Also, at human GR (setting [3]), the “Transrepression U937 Cells GITAR Emax” value amounted to 90.8%. In addition, the EC50 at human GR (Table 1) amounted to 43.9 nM.

For the compound `CCCCCN(CCO)C(=O)[C@H]1CCC2=Cc3c(cnn3-c3ccc(F)cc3)C[C@@]21C` [Compound 38, (4αR,5S)-1-(4-fluorophenyl)-N-(2-hydroxyethyl)-4α-methyl-N-pentyl-1,4,4α,5,6,7-hexahydrocyclopenta[f]indazole-5-carboxamide], the Emax at Glucocorticoid Receptor (Table 1) is 37.5%; at human GR (setting [5]), 84.7%; on human GR (setting [4]), greater than 5%. The EC50 at Glucocorticoid Receptor (Table 1) worked out at 660 nM; at human GR (Table 1), 739 nM. The inhibition constant (Ki) in test [1] (Table 1) came to 14.6 nM. Also, the “GITAR Greater than by GRAMMER % SEP” value at human GR (setting [2]) is 47.3%.

With `C[C@]12Cc3cnn(-c4ccc(F)cc4)c3C=C1CC[C@@H]2C(=O)Nc1ccccc1S(N)(=O)=O` [Compound 23, (4αR,5S)-N-[2-(aminosulfonyl)phenyl]-1-(4-fluorophenyl)-4α-methyl-1,4,4α,5,6,7-hexahydrocyclopenta[f]indazole-5-carboxamide], the Emax was 3.8% on Glucocorticoid Receptor (Table 1), 18% at human GR (setting [5]) and greater than 5% at human GR (setting [4]). For the same compound, the values for the EC50 at Glucocorticoid Receptor (Table 1) and at human GR (Table 1) were 45.4 nM and 1700 nM, respectively. Besides, the affinity in test [1] (Table 1) corresponds to a Ki of 19.4 nM. The “GITAR Greater than by GRAMMER % SEP” value at human GR (setting [2]) came out at 14.2%.

With `CCCCN(CCC)C(=O)[C@H]1CCC2=Cc3c(cnn3-c3ccc(F)cc3)C[C@@]21C` [Compound 56, (4αR,5S)-N-butyl-1-{4-fluorophenyl)-4α-methyl-N-propyl-1,4,4α,5,6,7-hexahydrocyclopenta[f]indazole-5-carboxamide], the Emax is 44.1% on Glucocorticoid Receptor (Table 1), 68.1% on human GR (setting [5]) and greater than 5% at human GR (setting [4]). For the same compound, the EC50 is 430 nM on Glucocorticoid Receptor (Table 1) and 595 nM at human GR (Table 1). Moreover, the Ki in test [1] (Table 1) came to 2.5 nM. Moreover, the “GITAR Greater than by GRAMMER % SEP” value on human GR (setting [2]) is reported as 24.0%.

Turning to `CC1CN(C(=O)[C@H]2CCC3=Cc4c(cnn4-c4ccc(F)cc4)C[C@@]32C)CC(C)O1` (stereo partly drawn) [Compound 17, (4αR,5S)-5-[(2,6-dimethylmorpholin-4-yl)carbonyl]-1-(4-fluorophenyl)-4α-methyl-1,4,4α,5,6,7-hexahydrocyclopenta[f]indazole], the Emax on Glucocorticoid Receptor (Table 1) was 9.4%; at human GR (setting [5]), 11.8%; on human GR (setting [4]), greater than 5%. The EC50 on Glucocorticoid Receptor (Table 1) came to 526 nM; on human GR (Table 1), 1830 nM. In addition, in test [1] (Table 1), the Ki turned out to be 43.6 nM. Moreover, the “GITAR Greater than by GRAMMER % SEP” value on human GR (setting [2]) turned out to be 2.3%.

With `C[C@]12Cc3cnn(-c4ccc(F)cc4)c3C=C1CC[C@@H]2C(=O)NCc1ccccc1` [reference compound], the Emax on Glucocorticoid Receptor (compounds in the art) is 103%; on human GR (U-937, U937 cells, activity repressed by 100 nM dexamethasone = 100%, compounds in the art, read-out: Transrepression U937 Cells GITAR Emax) it was 43.8%. Also, the figures for the EC50 on Glucocorticoid Receptor (setting [6]) and at human GR (setting [6]) were 502 nM and 4280 nM, respectively. In test [1] (setting [6]), this compound displayed a Ki of 21.1 nM. Also, at human GR (GITAR Emax minus GRAMMER Emax, compounds in the art), the “GITAR > GRAMM % SEP” value is recorded as -59.6%.

As to `CCN(Cc1ccccc1)C(=O)[C@H]1CCC2=Cc3c(cnn3-c3ccc(F)cc3)C[C@@]21C` [Compound 52, (4αR,5S}-N-benzyl-N-ethyl-1-(4-fluorophenyl)-4α-methyl-1,4,4α,5,6,7-hexahydrocyclopenta[f]indazole-5-carboxamide], the Emax at Glucocorticoid Receptor (Table 1) is 11.6%; at human GR (setting [5]) it was 33.2%; at human GR (setting [4]), greater than 5%. For the same compound, the EC50 at Glucocorticoid Receptor (Table 1) was 1710 nM; on human GR (Table 1), 971 nM. This compound also showed a Ki in test [1] (Table 1) of 2.6 nM. For the same compound, at human GR (setting [2]), the “GITAR Greater than by GRAMMER % SEP” value turned out to be 21.7%.

Take `COc1ccccc1CN(C)C(=O)[C@H]1CCC2=Cc3c(cnn3-c3ccc(F)cc3)C[C@@]21C` [Compound 50, (4αR,5S)-1-{4-fluorophenyl)-N-(2-methoxybenzyl)-N,4α-dimethyl-hexahydrocyclopenta[f]indazole-5-carboxamide]: the Emax was 3.4% on Glucocorticoid Receptor (Table 1), 20.3% on human GR (setting [5]) and greater than 5% on human GR (setting [4]). In addition, the EC50 on Glucocorticoid Receptor (Table 1) came to 1460 nM; at human GR (Table 1), 226 nM. In addition, the Ki in test [1] (Table 1) stood at 9 nM. In addition, at human GR (setting [2]), the “GITAR Greater than by GRAMMER % SEP” value amounted to 16.9%.

Regarding `COc1cc(CN(CCO)C(=O)[C@H]2CCC3=Cc4c(cnn4-c4ccc(F)cc4)C[C@@]32C)cc(OC)c1` [Compound 34, (4αR,5S)-N-(3,5-dimethoxybenzyl)-1-(4-fluorophenyl)-N-(2-hydroxyethyl)-4α-methyl-1,4,4α,5,6,7-hexahydrocyclopenta[f]indazole-5-carboxamide], the Emax at Glucocorticoid Receptor (Table 1) was 22.2%; on human GR (setting [5]), 66.3%; on human GR (setting [4]), greater than 5%. In addition, the EC50 is 1510 nM at Glucocorticoid Receptor (Table 1) and 644 nM on human GR (Table 1). This compound also registered a Ki in test [1] (Table 1) of 12 nM. For the same compound, the “GITAR Greater than by GRAMMER % SEP” value on human GR (setting [2]) worked out at 44.1%.
